Experimental data taken from ChEMBL document CHEMBL1201862, “PubChem BioAssay data set” (2004).
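Compound exposure: 48 hours, 5 concentrations, 96-well plates. Abbreviation: GI50, concentration required for 50% inhibition of growth.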 Active and inactive are the calls of the source. No stated cut-off is given here; in the data, active = GI50 up to about 1.1 µM and inactive = higher.

What was measured:
Assay in all cases: DTP human tumour cell line panel, 48 h
UACC-257 = tested on: UACC-257
DLD-1 = tested on: DLD-1
EKVX = tested on: EKVX
NCI-H226 = tested on: NCI-H226
OVCAR-3 = tested on: OVCAR-3
COLO 205 = tested on: COLO 205
SNB-78 = tested on: SNB-78
NCI-H460 = tested on: NCI-H460
UO-31 = tested on: UO-31
Malme-3M = tested on: Malme-3M
DMS-114 = tested on: DMS-114
RXF 393 = tested on: RXF 393
NCI-H522 = tested on: NCI-H522
MDA-MB-435 = tested on: MDA-MB-435
NCI/ADR-RES = tested on: NCI/ADR-RES
T47D = tested on: T47D
DU-145 = tested on: DU-145
MCF7 = tested on: MCF7
MDA-MB-231 = tested on: MDA-MB-231
HOP-18 = tested on: HOP-18

SMILES	GI50 (UACC-257)	GI50 (DLD-1)	GI50 (EKVX)	GI50 (NCI-H226)	GI50 (OVCAR-3)	GI50 (COLO 205)	GI50 (SNB-78)	GI50 (NCI-H460)	GI50 (UO-31)	GI50 (Malme-3M)	GI50 (DMS-114)	GI50 (RXF 393)	GI50 (NCI-H522)	GI50 (MDA-MB-435)	GI50 (NCI/ADR-RES)	GI50 (T47D)	GI50 (DU-145)	GI50 (MCF7)	GI50 (MDA-MB-231)	GI50 (HOP-18)
O=C(Nc1ccc(Cl)cc1C(=O)O)c1ccc([N+](=O)[O-])cc1	18.6 µM (inactive)	7.06 µM (inactive)	29.5 µM (inactive)	11.2 µM (inactive)	22.4 µM (inactive)	18.7 µM (inactive)	22.4 µM (inactive)	18.5 µM (inactive)	19 µM (inactive)	4.95 µM (inactive)	9.08 µM (inactive)									
COc1ccc(C(=O)N2c3ccccc3N(C)n3cccc3C2CC(=O)O)cc1 (configuration not stated)	> 100 µM (inactive)	> 100 µM (inactive)	> 100 µM (inactive)	> 100 µM (inactive)	> 100 µM (inactive)	> 100 µM (inactive)	> 100 µM (inactive)	> 100 µM (inactive)	> 100 µM (inactive)	> 100 µM (inactive)	> 100 µM (inactive)	> 100 µM (inactive)	> 100 µM (inactive)							
CC(=O)OC1[C@H]2c3cc4c(cc3CN3CCC(=C[C@@H]1O)C23)OCO4 (some centres not stated)	46.9 µM (inactive)	> 100 µM (inactive)	34 µM (inactive)	34.7 µM (inactive)	> 100 µM (inactive)	> 100 µM (inactive)	54.2 µM (inactive)	> 100 µM (inactive)	> 100 µM (inactive)	> 100 µM (inactive)		> 100 µM (inactive)	> 100 µM (inactive)							
C=C(C)C(=O)O[C@H]1[C@H]2[C@H](OC(=O)[C@H]2C)[C@H](O)[C@@H](C)[C@@H]2C=CC(=O)[C@]21C	2.13 µM (inactive)		2.86 µM (inactive)	8.57 µM (inactive)	4.52 µM (inactive)	3.27 µM (inactive)		1.82 µM (inactive)	3.94 µM (inactive)	2.18 µM (inactive)		1.22 µM (inactive)	1.2 µM (inactive)	2.56 µM (inactive)	3.22 µM (inactive)	4.78 µM (inactive)	3.9 µM (inactive)	4.19 µM (inactive)	4.54 µM (inactive)	
Cc1ccc(NCC2CC/C(=C\c3ccc(Cl)cc3)C2=O)cc1 (configuration not stated)	17.4 µM (inactive)		52.7 µM (inactive)	> 76.6 µM (inactive)	14.3 µM (inactive)	14.8 µM (inactive)		21.7 µM (inactive)	21.2 µM (inactive)	18 µM (inactive)		17 µM (inactive)	7.38 µM (inactive)	14.4 µM (inactive)	33.7 µM (inactive)	15.1 µM (inactive)	30.1 µM (inactive)	2.83 µM (inactive)	11.4 µM (inactive)	
CCC1CCc2c(OC)ccc(OCC(=O)O)c2C1=O (configuration not stated)	> 100 µM (inactive)	> 100 µM (inactive)	> 100 µM (inactive)	> 100 µM (inactive)	> 100 µM (inactive)	> 100 µM (inactive)	> 100 µM (inactive)		> 100 µM (inactive)	> 100 µM (inactive)	> 100 µM (inactive)	> 100 µM (inactive)	> 100 µM (inactive)							
O=C(O)CCC1CCc2cccc3occ1c23 (configuration not stated)	> 100 µM (inactive)	> 100 µM (inactive)	> 100 µM (inactive)	> 100 µM (inactive)	> 100 µM (inactive)	> 100 µM (inactive)	> 100 µM (inactive)	> 100 µM (inactive)	> 100 µM (inactive)	> 100 µM (inactive)	> 100 µM (inactive)	> 100 µM (inactive)	> 100 µM (inactive)							
C[C@H](CCC1=NCCN1)[C@H]1CC[C@H]2[C@@H]3CC[C@@H]4C[C@H](O)CC[C@]4(C)[C@H]3CC[C@]12C	2.55 µM (inactive)		13.3 µM (inactive)	7.46 µM (inactive)	0.394 µM (active)	1.95 µM (inactive)		2.91 µM (inactive)	14.2 µM (inactive)	2.44 µM (inactive)		12.2 µM (inactive)	5.41 µM (inactive)	4.53 µM (inactive)	16.1 µM (inactive)	13.1 µM (inactive)	13.9 µM (inactive)	6.52 µM (inactive)	5.78 µM (inactive)	
COc1cc(OC)c2c(c1)OC(c1ccccc1)CC2=O (configuration not stated) [DIMETHYLPINOCEMBRIN]	> 10 µM (inactive)		> 10 µM (inactive)	> 10 µM (inactive)	> 10 µM (inactive)	> 10 µM (inactive)		> 10 µM (inactive)	> 10 µM (inactive)	> 10 µM (inactive)		> 10 µM (inactive)	> 10 µM (inactive)	> 10 µM (inactive)	> 10 µM (inactive)	> 10 µM (inactive)	> 10 µM (inactive)	> 10 µM (inactive)	> 10 µM (inactive)	
O=C(CSCC(=O)N/N=C\c1cccc([N+](=O)[O-])c1)N/N=C\c1cccc([N+](=O)[O-])c1	> 100 µM (inactive)		53.6 µM (inactive)	> 100 µM (inactive)	22.9 µM (inactive)	> 100 µM (inactive)		69.2 µM (inactive)	34.4 µM (inactive)	21 µM (inactive)		49.8 µM (inactive)	43.8 µM (inactive)	> 100 µM (inactive)	19.2 µM (inactive)	34.1 µM (inactive)	54.1 µM (inactive)	38.5 µM (inactive)	18.9 µM (inactive)	
CNS(=O)(=O)NNS(=O)(=O)c1ccc(Cl)cc1	> 100 µM (inactive)	> 100 µM (inactive)	> 100 µM (inactive)		> 100 µM (inactive)	> 100 µM (inactive)		> 100 µM (inactive)	48.2 µM (inactive)	> 100 µM (inactive)	> 100 µM (inactive)	> 100 µM (inactive)	> 100 µM (inactive)							
O=C(C#Cc1cn(C2CC(O)C(CO)O2)c(=O)[nH]c1=O)c1ccccc1 (configuration not stated)	55 µM (inactive)		> 100 µM (inactive)	70 µM (inactive)	21.1 µM (inactive)	28.6 µM (inactive)		> 100 µM (inactive)	> 100 µM (inactive)	12.2 µM (inactive)		17.5 µM (inactive)	5.6 µM (inactive)	58.9 µM (inactive)	32.6 µM (inactive)	19.5 µM (inactive)	> 100 µM (inactive)	33.3 µM (inactive)	> 100 µM (inactive)	
CCOC(=N)CC(=O)Nc1ccc(Cl)cc1	> 100 µM (inactive)	> 100 µM (inactive)	> 100 µM (inactive)	> 100 µM (inactive)	> 100 µM (inactive)	> 100 µM (inactive)	> 100 µM (inactive)	> 100 µM (inactive)	> 100 µM (inactive)	> 100 µM (inactive)		> 100 µM (inactive)	> 100 µM (inactive)							1.73 µM (inactive)
c1ccc(CCN(Cc2nc3ccccc3[nH]2)Cc2nc3ccccc3[nH]2)cc1	14.5 µM (inactive)		39.1 µM (inactive)	27.6 µM (inactive)	20.2 µM (inactive)	13.4 µM (inactive)		10 µM (inactive)	10.9 µM (inactive)	21.6 µM (inactive)		13.3 µM (inactive)	17 µM (inactive)	12.4 µM (inactive)	5.93 µM (inactive)	1.79 µM (inactive)	14.4 µM (inactive)	11.7 µM (inactive)	13.2 µM (inactive)	
COc1ccc(C(CC(=O)c2ccc3c(c2)OCO3)c2c(O)oc3ccccc3c2=O)cc1OC (configuration not stated)	> 100 µM (inactive)		> 100 µM (inactive)	> 100 µM (inactive)	82.8 µM (inactive)	63.4 µM (inactive)		44.7 µM (inactive)	73.3 µM (inactive)	> 100 µM (inactive)		> 100 µM (inactive)	> 100 µM (inactive)	> 100 µM (inactive)	> 100 µM (inactive)	> 100 µM (inactive)	> 100 µM (inactive)	69.3 µM (inactive)	> 100 µM (inactive)	
CC(C)=CCc1ccc2[nH]c3c(c2c1)C(=O)C(=O)C(C)=C3C(O)C(C)O (configuration not stated)	2.06 µM (inactive)		16.1 µM (inactive)	15.1 µM (inactive)	2.96 µM (inactive)	2.16 µM (inactive)		14.1 µM (inactive)	1.55 µM (inactive)	1.78 µM (inactive)		2.17 µM (inactive)	1.69 µM (inactive)	2.85 µM (inactive)	15.1 µM (inactive)	2.29 µM (inactive)	10.5 µM (inactive)	1.63 µM (inactive)	3.54 µM (inactive)	
O=C1c2ccc(O)cc2C(=O)c2ccc(O)cc21	> 100 µM (inactive)	38.6 µM (inactive)	67.3 µM (inactive)		78.5 µM (inactive)	> 100 µM (inactive)	> 100 µM (inactive)	53.2 µM (inactive)	24.3 µM (inactive)	57.4 µM (inactive)	95.9 µM (inactive)	29.9 µM (inactive)	32.6 µM (inactive)							
Cc1ccc(NC(=O)C(=O)C2C(=O)NC(=O)NC2=O)cc1C	> 100 µM (inactive)	> 100 µM (inactive)	> 100 µM (inactive)	> 100 µM (inactive)	> 100 µM (inactive)	> 100 µM (inactive)	> 100 µM (inactive)	> 100 µM (inactive)	> 100 µM (inactive)	> 100 µM (inactive)		> 100 µM (inactive)	> 100 µM (inactive)							> 100 µM (inactive)
CCOC(=O)Nn1c(C)cc(C(=O)OC)c1C	> 100 µM (inactive)	> 100 µM (inactive)	> 100 µM (inactive)	> 100 µM (inactive)	> 100 µM (inactive)	> 100 µM (inactive)	> 100 µM (inactive)	> 100 µM (inactive)	> 100 µM (inactive)	> 100 µM (inactive)	> 100 µM (inactive)	> 100 µM (inactive)	> 100 µM (inactive)							
